Measured values taken from patent US20030138500A1 (priority 2001, published 2003).

What was measured:
Format in all cases: in vivo
[1] = tested on: twospotted spider mites, Tetranychus urticae Koch; experiment: Mortality of adult twospotted spider mites on bush bean leaves after spray treatment; settings: two days after treatment, concentration in label
Method: (§1) Adult twospotted spider mites, Tetranychus urticae Koch, were obtained from a colony and 25 mites per leaf were placed on bush bean plants (one leaf per replicate). Mites were allowed to settle overnight and then treatments were applied to wetting on top and bottom leaf surfaces using a hand-held trigger sprayer. After treatment, plants were randomized on a lab bench in a randomized block design. Treatments consisted of 9 replicates of 1 plant each. Mortality was assessed 2 days following treatment.
as §1, with “10” for “9”

[2] = tested on: Green peach aphids, Myzus persicae (Sulzer); experiment: Mortality of green peach aphids sprayed on plate glass (60 seconds exposure); settings: Example 12, Table 12; after 1 day; concentration in label
Method: Green peach aphids, Myzus persicae (Sulzer), were obtained from a colony and transferred to plate glass for treatment. Treatments were then applied with a hand-held trigger sprayer to wetting and aphids remained exposed to treatments for 60 seconds. After treatment, aphids were transferred to filter paper lined petri dishes and dishes were randomized on a lab bench in a completely randomized design. Treatments consisted of 10 replicates of 10 aphids each. Mortality was assessed after 1 day.

[3] = tested on: green peach aphid, Myzus persicae (Sulzer); experiment: Mortality of green peach aphids on infested radish plants after spray treatment; settings: Example 4, Table 4, after 2 days, concentration in label
Method: Radish plants were placed in a colony for 4 days for infestation with green peach aphid, Myzus persicae (Sulzer). Treatments were then applied with a hand-held trigger sprayer to wetting on all leaf surfaces. After treatment, plants were randomized on a lab bench in a completely randomized block design. Treatments consisted of 8 replicates of 1 plant each. Mortality was assessed after 2 days by counting the live and dead aphids on all leaves.

SMILES | Observed % Mortality ([1]; Example 11, Table 11, adult female mites on bush bean) | Observed % Mortality [2] | Observed % Mortality ([1]; Example 2, Table 2, adult female mites on bush bean) | Observed % Mortality ([1]; Example 3, Table 3, mites on bush bean) | Observed % Mortality [3]
CC1(C)C(C=C(Cl)Cl)C1C(=O)OCc1cccc(Oc2ccccc2)c1 (centres unmarked) [Permethrin] | 26.2% | 84.0% | – | – | –
S1SSSSSSS1 [Powdered Sulfur (0.2% ai sulfur), Sulfur] | – | – | 4.5% | 2.6% | 1.3%
